Source: patent publication US4782058A, “1,3,4,6,7,11b-Hexahydro-6-phenyl-2H-pyrazino-(2,1-a)isoquinolines, for anti-histamine or anti-depression treatment” (Pennwalt Corporation, priority 1987, dated 1988)
Counter-ions that a name gives are not always drawn.

Columns and labels:
[1] = tested on: tetrabenazine-induced ptosis; experiment: inhibition of tetrabenazine-induced ptosis in mice; assay type: in vivo; settings: Mus musculus, po; male CF-1 mice, orally administered 15 min before i.v. tetrabenazine; ptosis rated 30-150 min; read-out: lowest active dose (LAD)
Protocol: A particularly useful compound with respect to antidepressant activity is the title compound of Example 1 (i.e., the cis-diastereoisomeric form of the compound of formula I in which R1 is methyl, R2 is methoxy, and R3 is hydrogen). That compound was tested for antidepressant activity by measuring its ability to inhibit tetrabenazine-induced ptosis in mice.
Male CF-1 mice weighing 19-32 grams were housed for a minimum of 5 days under a 12 hour light/dark (6 am/6 pm) schedule at 70°-74° F. and relative humidity of 30-50%. Food and water were available ad libitum until the time of administration of test compounds. Mice in groups of ten were orally administered (via gastric intubation) either the control solution (distilled water, 10 ml/kg) or the test compound. The test compound was either dissolved in distilled water or suspended in distilled water containing a drop of polyoxyethylene 20 sorbitan monooleate, sold under the trademark, Tween 80. After fifteen minutes, a dose of 10 ml/kg of a solution of tetrabenazine (as its methane sulfonate salt) in distilled water (4 mg/ml) was administered by intravenous injection. The degree of palpebral closure (ptosis) was determined 30, 60, 90, 120, and 150 minutes after administration of the tetrabenazine solution. […]

histamine H1 -receptors = biological target: T1, histamine H1 -receptors (Rattus norvegicus, UniProt P31390); experiment: inhibition of binding of 3H-pyrilamine to homogenated rat cerebral tissue; settings: 3H-pyrilamine binding, read-out: IC50 (50% inhibitory concentration)
T1 construct: homogenated rat cerebral tissue; from tissue; host or cells: rat cerebral tissue, homogenate
T1 sequence (P31390 whole entry): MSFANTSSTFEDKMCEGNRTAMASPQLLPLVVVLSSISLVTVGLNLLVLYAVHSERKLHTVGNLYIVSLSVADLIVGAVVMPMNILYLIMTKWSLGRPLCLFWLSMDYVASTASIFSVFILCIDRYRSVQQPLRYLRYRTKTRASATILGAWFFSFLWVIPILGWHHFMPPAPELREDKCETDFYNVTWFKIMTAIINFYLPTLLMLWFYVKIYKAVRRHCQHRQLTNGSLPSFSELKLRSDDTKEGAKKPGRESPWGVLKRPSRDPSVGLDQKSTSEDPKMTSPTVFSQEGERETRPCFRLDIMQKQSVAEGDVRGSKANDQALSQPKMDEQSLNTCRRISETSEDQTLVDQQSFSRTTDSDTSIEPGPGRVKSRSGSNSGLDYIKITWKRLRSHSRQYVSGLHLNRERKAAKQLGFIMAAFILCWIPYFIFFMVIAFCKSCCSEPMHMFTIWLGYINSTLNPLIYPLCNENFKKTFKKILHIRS
Protocol: That compound was assayed for anti-histamine activity by measuring its ability to inhibit the binding of 3H-pyrilamine to homogenated rat cerebral tissue. (3H-Pyrilamine is a radioligand that is used to characterize histamine H1 -receptors in brain tissue.) Assay conditions were essentially those of V. T. Tran et al, Proc. Nat'l. Acad. Sci. (USA) 75, p. 6290-6294 (1978).

SMILES	minimal effective dose [1]	IC50 (histamine H1 -receptors)
COc1ccc2c(c1)C[C@@H](c1ccccc1)N1CCN(C)C[C@@H]21 (relative stereo) [Example 1, cis-1,3,4,6,7,11b-hexahydro-9-methoxy-2-methyl-6-phenyl-2H-pyrazino[2,1-a]isoquinoline dihyrochloride]	20 mg/kg	–
CN1CCN2[C@@H](c3ccccc3)Cc3cc(O)ccc3[C@@H]2C1 (relative stereo) [Example 2, cis-1,3,4,6,7,11b-hexahydro-9-hydroxy-2-methyl-6-phenyl-2H-pyrazino[2,1-a]isoquinoline dihydrobromide]	–	250 nM
